Patent publication US20260297060A1, “COMPOUNDS FOR THE DEGRADATION OF MUTANT BRAF” (C4 THERAPEUTICS, INC., priority 2023, published 2026)
Read-outs that look alike come from different tables or passages of the source.

Key:
[1] = system: A375-NRAS^Q61K cells; assay: CTGlo Cell Viability Assay, A375-NRAS^Q61K (A375.11) cells, 96 hours; format: cell-based, human; details: Homo sapiens, 96 h, A375.11 (A375-NRAS^Q61K) cells; for Emax: lowest % viability achieved
Procedure, shortened: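 Viability as CellTiter-Glo ATP luminescence after 96 h compound exposure at 37 °C; A375.11 (BRAF V600E/NRAS Q61K) cells at 250/well, top final concentration 10 μM in half-log steps. Signal was background-corrected and set relative to DMSO controls. A 4-parameter logistic fit gave GI50 (50% crossing) and Emax.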

[2] = Example 7 pharmacokinetics assay for PKPD study (plasma, tumor, liver); format: in vivo, BALB/c nude mice; details: mouse, po, 100 mg/kg, p.o., single dose
Experimental: For the PK and PD study, agents were administered to BALB/c nude mice bearing A375 human melanoma xenografts tumors. Dabrafenib, Compound 141, Compound 118, Compound 156, and Compound 180 were dosed p.o. once on day 1. Known BRAF inhibitor Dabrafenib was used as a positive control. Dabrafenib was dosed at 100 mg/kg. Compound 141, Compound 118, Compound 156, and Compound 180 were dosed at 10 mg/kg.
The plasma samples were collected at predetermined time points for PK analysis. The mice were euthanized at predetermined time points post the treatment. The blood samples were collected into the 1.5 mL Eppendorf tubes containing 15 μL of 0.5 M EDTA-K2. And then the anticoagulant blood samples were centrifuged at 2,500 g at 4° C. for 15 minutes. The plasma samples were separated into 2 aliquots. The 1st was used for PK analysis, and the 2nd served as backup. The samples were stored at −80° C. before bioanalysis.
The tumor samples were collected at predetermined time points for PK and WB analysis. The tumor was dissected out and split into 3 parts. The 1st part was used for PK analysis, the 2nd part was used for WB analysis and the last one served as backup for study. The samples were transferred into pre-labeled tubes and quickly froze in liquid nitrogen within 2 minutes after dissection. The samples were stored at −80° C. before bioanalysis.
Liver samples were collected at predetermined time points for PK analysis. The left lobe of the liver was dissected out and split into 2 parts. The 1st part was used for PK analysis and the 2nd part served as the backup for the study. The samples were transferred into pre-labeled tubes and quickly froze in liquid nitrogen within 2 minutes after dissection. The samples were stored at −80° C. before bioanalysis.
The harvested plasma and liver samples were processed for pharmacokinetics analysis by LC-MS/MS with a concentration range of 0.500-1000 ng/mL for Dabrafenib, Compound 118 and Compound 180 in plasma, 0.100~200 ng/ml for Dabrafenib in Liver and tumor homogenate, 50.0~50,000 ng/mL for Compound 141 in plasma and Liver homogenate, 1.00-1000 ng/ml for Compound 141 in tumor homogenate, 2.00~2000 ng/mL for Compound 118 and Compound 180 in Liver and 0.200~200 ng/ml in tumor homogenate, 1.00~2000 ng/mL for Compound 156 in plasma, 0.500-1000 ng/ml in liver and 0.500-1,000 ng/ml in tumor homogenate.

[3] = liver, read-out: Concentration in Liver (mean ± SEM)
[4] = plasma, read-out: Concentration in Plasma (mean ± SEM)
[5] = tumor, read-out: Concentration in Tumor (mean ± SEM)

GI50 [1] [nM]	concentration at 6 h [2, 3] [ng/g]	concentration at 12 h [2, 3] [ng/g]	concentration at 1 h [2, 4] [ng/mL]	concentration at 6 h [2, 4] [ng/mL]	concentration at 12 h [2, 4] [ng/mL]	concentration at 24 h [2, 4] [ng/mL]	concentration at 1 h [2, 5] [ng/g]	concentration at 6 h [2, 5] [ng/g]	concentration at 12 h [2, 5] [ng/g]	concentration at 24 h [2, 5] [ng/g]	Compound	Emax [1] [%]
< 1000											CO[C@@H]1CCN(S(=O)(=O)Nc2ccc(F)c(Oc3ccc4ncn(C5CC6(CCN(C7CC8(C7)CN(c7cc9c(cc7F)c(N7CCC(=O)NC7=O)nn9C)C8)CC6)C5)c(=O)c4c3)c2C#N)C1 (stereo partly drawn) [Compound 269, (3R)-N-[2-cyano-3-[3-[7-[2-[3-(2,4-dioxohexahydropyrimidin-1-yl)-5-fluoro-1-methyl-indazol-6-yl]-2-azaspiro[3.3]heptan-6-yl]-7-azaspiro[3.5]nonan-2-yl]-4-oxo-quinazolin-6-yl]oxy-4-fluoro-phenyl]-3-methoxy-pyrrolidine-1-sulfonamide]	< 50
< 1000											COC1CN(S(=O)(=O)Nc2ccc(F)c(Oc3ccc4ncn(C5CC6(CCN(C7CC8(C7)CN(c7cc9c(cc7F)c(N7CCC(=O)NC7=O)nn9C)C8)CC6)C5)c(=O)c4c3)c2C#N)C1 (centres unmarked) [Compound 280, N-[2-cyano-3-[3-[7-[2-[3-(2,4-dioxohexahydropyrimidin-1-yl)-5-fluoro-1-methyl-indazol-6-yl]-2-azaspiro[3.3]heptan-6-yl]-7-azaspiro[3.5]nonan-2-yl]-4-oxo-quinazolin-6-yl]oxy-4-fluoro-phenyl]-3-methoxy-azetidine-1-sulfonamide]	< 50
	2450 ± 737	1110 ± 453	7370 ± 865	1140 ± 390	336 ± 137	3.88 ± 2.43	9520 ± 2050	702 ± 341	242 ± 96	5.53 ± 0.951	CC(C)(C)c1nc(-c2cccc(NS(=O)(=O)c3c(F)cccc3F)c2F)c(-c2ccnc(N)n2)s1 [Dabrafenib, dabrafenib, reference compound]	
